Test results taken from patent publication US20230414826A1, “FIBRIN HYDROGELS” (Mayo Foundation for Medical Education and Research, priority 2020, published 2023).

Target: T1, fibrin gels (40 mg/mL fibrinogen, 33 U/mL thrombin) (Homo sapiens, UniProt P02671+P02675+P02679)
T1 construct: purchased Ethicon (Evicel)
T1 sequence (P02671 20-644 isoform P02671-2 limits assumed): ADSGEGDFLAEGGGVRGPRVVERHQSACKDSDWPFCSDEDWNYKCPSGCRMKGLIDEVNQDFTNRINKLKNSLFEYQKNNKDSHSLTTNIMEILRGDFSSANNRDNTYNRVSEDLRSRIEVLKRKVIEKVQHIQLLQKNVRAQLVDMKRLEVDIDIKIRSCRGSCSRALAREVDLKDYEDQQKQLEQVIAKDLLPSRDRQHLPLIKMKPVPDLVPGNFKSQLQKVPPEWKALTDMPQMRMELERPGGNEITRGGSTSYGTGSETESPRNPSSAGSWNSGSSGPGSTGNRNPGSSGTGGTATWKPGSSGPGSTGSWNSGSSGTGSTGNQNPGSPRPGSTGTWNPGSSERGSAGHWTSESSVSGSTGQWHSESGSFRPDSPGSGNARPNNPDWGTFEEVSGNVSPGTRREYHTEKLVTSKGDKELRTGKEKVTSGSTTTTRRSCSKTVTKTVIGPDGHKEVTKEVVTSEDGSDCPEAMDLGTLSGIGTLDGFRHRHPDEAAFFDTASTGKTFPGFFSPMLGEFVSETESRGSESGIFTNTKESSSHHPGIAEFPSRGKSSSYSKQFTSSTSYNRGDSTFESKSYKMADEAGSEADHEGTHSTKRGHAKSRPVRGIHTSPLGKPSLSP
T1 sequence (P02675 45-491 limits assumed): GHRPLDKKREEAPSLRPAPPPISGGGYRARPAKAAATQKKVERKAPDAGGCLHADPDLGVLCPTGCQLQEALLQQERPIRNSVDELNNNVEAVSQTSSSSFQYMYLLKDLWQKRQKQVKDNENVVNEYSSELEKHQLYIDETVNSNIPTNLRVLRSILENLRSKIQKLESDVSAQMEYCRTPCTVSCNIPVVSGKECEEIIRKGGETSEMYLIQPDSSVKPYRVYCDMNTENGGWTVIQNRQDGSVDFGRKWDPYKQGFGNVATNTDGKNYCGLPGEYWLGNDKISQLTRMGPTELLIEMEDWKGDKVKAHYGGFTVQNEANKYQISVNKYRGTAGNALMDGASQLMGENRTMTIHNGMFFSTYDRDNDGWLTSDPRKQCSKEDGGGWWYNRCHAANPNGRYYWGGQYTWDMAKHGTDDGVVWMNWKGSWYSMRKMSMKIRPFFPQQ
T1 sequence (P02679 27-437 isoform P02679-2 limits assumed): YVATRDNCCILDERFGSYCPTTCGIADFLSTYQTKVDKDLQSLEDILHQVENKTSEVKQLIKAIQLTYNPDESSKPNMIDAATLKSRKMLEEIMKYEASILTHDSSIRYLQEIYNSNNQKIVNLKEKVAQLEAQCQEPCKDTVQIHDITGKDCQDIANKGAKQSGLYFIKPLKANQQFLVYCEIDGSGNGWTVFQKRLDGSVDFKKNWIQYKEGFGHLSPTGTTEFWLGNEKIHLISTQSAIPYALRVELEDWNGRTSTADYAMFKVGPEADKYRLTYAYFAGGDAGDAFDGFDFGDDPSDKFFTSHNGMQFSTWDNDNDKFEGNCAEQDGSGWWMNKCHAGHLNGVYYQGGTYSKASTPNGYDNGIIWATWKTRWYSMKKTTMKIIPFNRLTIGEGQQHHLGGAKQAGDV
Experiment: Transmission electron microscopy of fibrin gel cross sections
Details: TEM, 0.12% w/v dye
Protocol: Both scanning electron microscopy (SEM) and transmission electron microscopy (TEM) were performed to investigate the effect of the chemical additives on fibril formation microstructure. Gels were made with PBS, TB, or EB as described elsewhere (see, e.g., Gandhi et al., 2018 Acta Biomater., 67:134-46) with the following modifications. Briefly, a mixture of 40 mg/mL fibrinogen, 33 U/mL thrombin, and 0.12% w/v dye final concentrations was plated into a custom acetal mold to create the 300 μm sheet. After a 2 hour incubation at 37° C., the gels were hydrated in PBS for a minimum of 15 minutes.
The gels were then fixed overnight in 2.5% paraformaldehyde and 1% glutaraldehyde in 0.1 M phosphate buffer pH 7 containing 1.0 mM MgCl2 and 0.13 mM CaCl2. After fixation, gels were processed for scanning electron microscopy (SEM). Samples for TEM were processed by initially dehydrating the gels, embedding into plastic resin, and sectioned at a thickness of 100 nm. SEM imaging was performed using a Hitachi S-4700 (Hitachi High Technologies; Schaumburg, IL) microscope. Sections processed for TEM were imaged used a JEOL 1400 microscope (JEOL; Peabody, MA).
TEM was then performed to visualize the cross section of the fibrin gels. […] The PBS fibrin gel appears to have larger mesh spaces, with a large range of fibril diameters and orientation. […]

Cc1cc(-c2ccc(/N=N/c3ccc4c(S(=O)(=O)O)cc(S(=O)(=O)O)c(N)c4c3O)c(C)c2)ccc1/N=N/c1ccc2c(S(=O)(=O)O)cc(S(=O)(=O)O)c(N)c2c1O [EB, Evans Blue]
largest fibril diameters: 40-60 nm

Cc1cc(-c2ccc(/N=N/c3c(S(=O)(=O)O)cc4cc(S(=O)(=O)O)cc(N)c4c3O)c(C)c2)ccc1/N=N/c1c(S(=O)(=O)O)cc2cc(S(=O)(=O)O)cc(N)c2c1O [TB, Trypan Blue]
largest fibril diameters: 50-75 nm
